What follows are compounds tested against T1, α-7 nicotinic acetylcholine receptor channel expressed in HEK 293 cells (Rattus norvegicus, UniProt Q05941) (assay: Ca2+-sensitive fluorescence-based FLIPR assay, α7 nicotinic ACh receptor channel function (agonist)). Conditions: FLIPR α7 (EC50, nM), Table Ib; HEK 293 cells, agonist Ca2+ flux.
T1 construct: expressed in transfected cells
Format: cell-based
Summary of the method: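 Potency and efficacy derived from kinetic FLIPR Ca²⁺-flux fluorescence, recorded 3 min after compound addition in Hanks buffer following a 10 s baseline.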

T1 sequence (Q05941 23-502): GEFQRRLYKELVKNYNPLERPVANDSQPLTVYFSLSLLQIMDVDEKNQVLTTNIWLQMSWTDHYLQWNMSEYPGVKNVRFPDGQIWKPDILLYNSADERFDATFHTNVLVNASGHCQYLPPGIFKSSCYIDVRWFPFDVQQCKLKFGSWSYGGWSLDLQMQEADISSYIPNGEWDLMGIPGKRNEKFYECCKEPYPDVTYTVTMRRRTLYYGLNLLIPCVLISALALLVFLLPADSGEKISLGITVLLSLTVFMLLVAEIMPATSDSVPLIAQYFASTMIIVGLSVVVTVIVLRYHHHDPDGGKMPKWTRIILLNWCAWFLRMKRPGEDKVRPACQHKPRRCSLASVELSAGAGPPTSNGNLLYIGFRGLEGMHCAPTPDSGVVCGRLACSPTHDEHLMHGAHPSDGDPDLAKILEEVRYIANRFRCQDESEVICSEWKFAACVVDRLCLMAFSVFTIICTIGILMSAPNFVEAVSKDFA

Row | SMILES | EC50 [nM]
1 | Clc1cncc(-c2ccnc(NC3=NC[C@@]4(CN5CCC4CC5)O3)c2)c1 [Example 297, (R)—N-(5-Chloro-3,4′-bipyridin-2′-yl)-4H-1′-azaspiro[oxazole-5,3′-bicyclo[2.2.2]octan]-2-amine] | 35
2 | COc1ccc(-c2ccnc(NC3=NC[C@@]4(CN5CCC4CC5)O3)c2)cn1 [Example 298, (R)—N-(6-Methoxy-3,4′-bipyridin-2′-yl)-4H-1′-azaspiro[oxazole-5,3′-bicyclo[2.2.2]octan]-2-amine] | 25
3 | c1ccc(-c2ccnc(NC3=NC[C@@]4(CN5CCC4CC5)O3)c2)cc1 [Example 302, (R)—N-(4-Phenylpyridin-2-yl)-4H-1′-azaspiro[oxazole-5,3′-bicyclo[2.2.2]octan]-2-amine] | 9
4 | Cc1nc(NC2=NC[C@@]3(CN4CCC3CC4)O2)c(Cl)cc1Cl [Example 308, (R)—N-(3,5-Dichloro-6-methylpyridin-2-yl)-4H-1′-azaspiro[oxazole-5,3′-bicyclo[2.2.2]octan]-2-amine] | 59
5 | COc1cnc(NC2=NC[C@@]3(CN4CCC3CC4)O2)nc1Cl [Example 317, (R)—N-(4-Chloro-5-methoxypyrimidin-2-yl)-4H-1′-azaspiro[oxazole-5,3′-bicyclo[2.2.2]octan]-2-amine] | 660

Same assay, conditions: FLIPR α7 activity rating (EC50, nM), Table 1; HEK 293 cells, agonist Ca2+ flux

Row | SMILES | EC50 [nM]
6 | Clc1cccc(NC2=NC[C@@]3(CN4CCC3CC4)O2)n1 [Example 285, (R)—N-(6-Chloropyridin-2-yl)-4H-1′-azaspiro[oxazole-5,3′-bicyclo[2.2.2]octan]-2-amine] | 100 to 1000
7 | Clc1cc(Cl)nc(NC2=NC[C@@]3(CN4CCC3CC4)O2)c1 [Example 286, (R)—N-(4,6-Dichloropyridin-2-yl)-4H-1′-azaspiro[oxazole-5,3′-bicyclo[2.2.2]octan]-2-amine] | 100 to 1000
8 | COc1ncccc1-c1ccnc(NC2=NC[C@@]3(CN4CCC3CC4)O2)c1 [Example 287, (R)—N-(2-methoxy-3,4′-bipyridin-2′-yl)-4H-1′-azaspiro[oxazole-5,3′-bicyclo[2.2.2]octan]-2-amine] | 100 to 1000
9 | c1ccc2oc(NC3=NC[C@@]4(CN5CCC4CC5)O3)nc2c1 [Example 288, (R)—N-(Benzo[d]oxazol-2-yl)-4H-1′-azaspiro[oxazole-5,3′-bicyclo[2.2.2]octan]-2-amine] | < 100
10 | Clc1ccc2oc(NC3=NC[C@@]4(CN5CCC4CC5)O3)nc2c1 [Example 289, (R)—N-(5-Chlorobenzo[d]oxazol-2-yl)-4H-1′-azaspiro[oxazole-5,3′-bicyclo[2.2.2]octan]-2-amine] | < 100
11 | c1cnc2nc(NC3=NC[C@@]4(CN5CCC4CC5)O3)oc2c1 [Example 290, (R)—N-(Oxazolo[4,5-b]pyridin-2-yl)-4H-1′-azaspiro[oxazole-5,3′-bicyclo[2.2.2]octan]-2-amine] | < 100
12 | Cc1ccc2cnc(NC3=NC[C@@]4(CN5CCC4CC5)O3)cc2c1 [Example 291, (R)—N-(6-Methylisoquinolin-3-yl)-4H-1′-azaspiro[oxazole-5,3′-bicyclo[2.2.2]octan]-2-amine] | < 100
13 | Brc1ccc2cnc(NC3=NC[C@@]4(CN5CCC4CC5)O3)cc2c1 [Example 292, (R)—N-(6-Bromoisoquinolin-3-yl)-4H-1′-azaspiro[oxazole-5,3′-bicyclo[2.2.2]octan]-2-amine] | < 100
14 | Brc1ccc2cc(NC3=NC[C@@]4(CN5CCC4CC5)O3)ncc2c1 [Example 293, (R)—N-(7-Bromoisoquinolin-3-yl)-4H-1′-azaspiro[oxazole-5,3′-bicyclo[2.2.2]octan]-2-amine] | 100 to 1000
15 | Brc1cccc2cnc(NC3=NC[C@@]4(CN5CCC4CC5)O3)cc12 [Example 294, (R)—N-(5-bromoisoquinolin-3-yl)-4H-1′-azaspiro[oxazole-5,3′-bicyclo[2.2.2]octan]-2-amine] | < 100
16 | Cc1cc(C)c2cnc(NC3=NC[C@@]4(CN5CCC4CC5)O3)cc2c1 [Example 295, (2R)—N-(6,8-Dimethyl-3-isoquinolinyl)-4′H-spiro[4-azabicyclo[2.2.2]octane-2,5′-[1,3]oxazol]-2′-amine] | 100 to 1000

Same assay, conditions: FLIPR α7 activity rating (EC50, nM), Table Ib; HEK 293 cells, agonist Ca2+ flux

Row | SMILES | EC50 [nM]
17 | c1cncc(-c2ccnc(NC3=NC[C@@]4(CN5CCC4CC5)O3)c2)c1 [Example 296, (R)—N-(3,4′-Bipyridin-2′-yl)-4H-1′-azaspiro[oxazole-5,3′-bicyclo[2.2.2]octan]-2-amine] | < 100
18 | Clc1cncc(-c2ccnc(NC3=NC[C@@]4(CN5CCC4CC5)O3)c2)c1 [Example 297, (R)—N-(5-Chloro-3,4′-bipyridin-2′-yl)-4H-1′-azaspiro[oxazole-5,3′-bicyclo[2.2.2]octan]-2-amine] | < 100
19 | COc1ccc(-c2ccnc(NC3=NC[C@@]4(CN5CCC4CC5)O3)c2)cn1 [Example 298, (R)—N-(6-Methoxy-3,4′-bipyridin-2′-yl)-4H-1′-azaspiro[oxazole-5,3′-bicyclo[2.2.2]octan]-2-amine] | < 100
20 | Fc1ccc(-c2ccnc(NC3=NC[C@@]4(CN5CCC4CC5)O3)c2)cn1 [Example 299, (R)—N-(6-Fluoro-3,4′-bipyridin-2′-yl)-4H-1′-azaspiro[oxazole-5,3′-bicyclo[2.2.2]octan]-2-amine] | < 100
21 | Fc1ccc(-c2ccnc(NC3=NC[C@@]4(CN5CCC4CC5)O3)c2)cc1Cl [Example 300, (R)—N-(4-(3-Chloro-4-fluoro-phenyl)pyridin-2-yl)-4H-1′-azaspiro[oxazole-5,3′-bicyclo[2.2.2]octan]-2-amine] | < 100
22 | Cc1cccc(-c2ccnc(NC3=NC[C@@]4(CN5CCC4CC5)O3)c2)c1 [Example 301, (R)—N-(4-m-Tolylpyridin-2-yl)-4H-1′-azaspiro[oxazole-5,3′-bicyclo[2.2.2]octan]-2-amine] | < 100
23 | c1ccc(-c2ccnc(NC3=NC[C@@]4(CN5CCC4CC5)O3)c2)cc1 [Example 302, (R)—N-(4-Phenylpyridin-2-yl)-4H-1′-azaspiro[oxazole-5,3′-bicyclo[2.2.2]octan]-2-amine] | < 100
24 | Cn1cc(-c2ccnc(NC3=NC[C@@]4(CN5CCC4CC5)O3)c2)cn1 [Example 303, (R)—N-(4-(1-Methyl-1H-pyrazol-4-yl)pyridin-2-yl)-4H-1′-azaspiro[oxazole-5,3′-bicyclo[2.2.2]octan]-2-amine] | < 100
25 | c1cc(-c2cscn2)cc(NC2=NC[C@@]3(CN4CCC3CC4)O2)n1 [Example 304, (R)—N-(4-(Thiazol-4-yl)pyridin-2-yl)-4H-1′-azaspiro[oxazole-5,3′-bicyclo[2.2.2]octan]-2-amine] | < 100
26 | O=[N+]([O-])c1ccc(-c2ccnc(NC3=NC[C@@]4(CN5CCC4CC5)O3)c2)cn1 [Example 305, (R)—N-(6-Nitro-3,4′-bipyridin-2′-yl)-4H-1′-azaspiro[oxazole-5,3′-bicyclo[2.2.2]octan]-2-amine] | < 100
27 | Cc1nc(NC2=NC[C@@]3(CN4CCC3CC4)O2)ccc1Cl [Example 306, (R)—N-(5-Chloro-6-methylpyridin-2-yl)-4H-1′-azaspiro[oxazole-5,3′-bicyclo[2.2.2]octan]-2-amine] | < 100
28 | Cc1cc(NC2=NC[C@@]3(CN4CCC3CC4)O2)ncc1F [Example 307, (R)—N-(5-Fluoro-4-methylpyridin-2-yl)-4H-1′-azaspiro[oxazole-5,3′-bicyclo[2.2.2]octan]-2-amine] | < 100
29 | Cc1nc(NC2=NC[C@@]3(CN4CCC3CC4)O2)c(Cl)cc1Cl [Example 308, (R)—N-(3,5-Dichloro-6-methylpyridin-2-yl)-4H-1′-azaspiro[oxazole-5,3′-bicyclo[2.2.2]octan]-2-amine] | < 100
30 | Cc1cnc(NC2=NC[C@@]3(CN4CCC3CC4)O2)cc1C [Example 309, (R)—N-(4,5-Dimethylpyridin-2-yl)-4H-1′-azaspiro[oxazole-5,3′-bicyclo[2.2.2]octan]-2-amine] | < 100
31 | COc1ccc(NC2=NC[C@@]3(CN4CCC3CC4)O2)nc1 [Example 310, (R)—N-(5-Methoxypyridin-2-yl)-4H-1′-azaspiro[oxazole-5,3′-bicyclo[2.2.2]octan]-2-amine] | < 100
32 | Clc1c(NC2=NC[C@@]3(CN4CCC3CC4)O2)ncc2ccccc12 [Example 311, (R)—N-(4-Chloroisoquinolin-3-yl)-4H-1′-azaspiro[oxazole-5,3′-bicyclo[2.2.2]octan]-2-amine] | < 100
33 | Fc1c(Cl)ccc2cc(NC3=NC[C@@]4(CN5CCC4CC5)O3)ncc12 [Example 312, (R)—N-(7-Chloro-8-fluoroisoquinolin-3-yl)-4H-1′-azaspiro[oxazole-5,3′-bicyclo[2.2.2]octan]-2-amine] | < 100
34 | Cc1nc(NC2=NC[C@@]3(CN4CCC3CC4)O2)cc2ccccc12 [Example 313, (R)—N-(1-Methylisoquinolin-3-yl)-4H-1′-azaspiro[oxazole-5,3′-bicyclo[2.2.2]octan]-2-amine] | < 100
35 | Fc1ccc(-c2cc(NC3=NC[C@@]4(CN5CCC4CC5)O3)ncn2)cc1 [Example 314, (R)—N-(6-(4-Fluorophenyl)pyrimidin-4-yl)-4H-1′-azaspiro[oxazole-5,3′-bicyclo[2.2.2]octan]-2-amine] | < 100
36 | Fc1cccc(-c2cc(NC3=NC[C@@]4(CN5CCC4CC5)O3)ncn2)c1 [Example 315, (R)—N-(6-(3-Fluorophenyl)pyrimidin-4-yl)-4H-1′-azaspiro[oxazole-5,3′-bicyclo[2.2.2]octan]-2-amine] | < 100
37 | Fc1cnc(NC2=NC[C@@]3(CN4CCC3CC4)O2)nc1 [Example 316, (R)—N-(5-Fluoropyrimidin-2-yl)-4H-1′-azaspiro[oxazole-5,3′-bicyclo[2.2.2]octan]-2-amine] | < 100
38 | COc1cnc(NC2=NC[C@@]3(CN4CCC3CC4)O2)nc1Cl [Example 317, (R)—N-(4-Chloro-5-methoxypyrimidin-2-yl)-4H-1′-azaspiro[oxazole-5,3′-bicyclo[2.2.2]octan]-2-amine] | 100 to 1000
39 | Fc1cc(F)c2cnc(NC3=NC[C@@]4(CN5CCC4CC5)O3)cc2c1 [Example 318, (R)—N-(6,8-Difluoroisoquinolin-3-yl)-4H-1′-azaspiro[oxazole-5,3′-bicyclo[2.2.2]octan]-2-amine] | < 100
40 | Fc1cc2cnc(NC3=NC[C@@]4(CN5CCC4CC5)O3)cc2cc1F [Example 319, (R)—N-(6,7-Difluoroisoquinolin-3-yl)-4H-1′-azaspiro[oxazole-5,3′-bicyclo[2.2.2]octan]-2-amine] | < 100
41 | Fc1ccc(F)c2cc(NC3=NC[C@@]4(CN5CCC4CC5)O3)ncc12 [Example 320, (R)—N-(5,8-Difluoroisoquinolin-3-yl)-4H-1′-azaspiro[oxazole-5,3′-bicyclo[2.2.2]octan]-2-amine] | < 100
42 | Fc1ccc2cnc(NC3=NC[C@@]4(CN5CCC4CC5)O3)nc2c1 [Example 321, (R)—N-(7-Fluoroquinazolin-2-yl)-4H-1′-azaspiro[oxazole-5,3′-bicyclo[2.2.2]octan]-2-amine] | < 100
43 | Clc1cccc2nc(NC3=NC[C@@]4(CN5CCC4CC5)O3)ncc12 [Example 322, (R)—N-(5-Chloroquinazolin-2-yl)-4H-1′-azaspiro[oxazole-5,3′-bicyclo[2.2.2]octan]-2-amine] | < 100

— US8309577B2, “Quinuclidine compounds as α-7 nicotinic acetylcholine receptor ligands” (Bristol-Myers Squibb Company, priority 2008, dated 2012)
